Assay [1] has as its target PDE (IV). Put plainly: Inhibition of phosphodiesterase PDE IV (cAMP-specific), boronate column method. It counts as biochemical, guinea-pig. To be noted: cAMP as substrate, 37° C., pH 7.5; read-out: Inhibition of PDE expressed as IC50, PDE (IV). On the procedure: (§1) The Ca^2+ /calmodulin-stimulated PDE (PDE I, see Table 1 and Beavo and Reifsynder (1990) for nomenclature) was prepared from bovine cardiac ventricle. Following chromatography on a Mono Q column, the fractions showing stimulation of PDE activity by CA^2+ and calmodulin were pooled and further purified on a calmodulin-affinity column. […] Initial chromatography on a 20 ml Mono Q column resolved PDE III from a peak that contained both PDE II and PDE IV. The latter were separated by a cGMP-affinity column. The resolved PDEs were separately rechromatographed on a 1 ml Mono Q column. cGMP-selective PDE (PDE V) was obtained from porcine lung using chromatography on DEAE-cellulose and Mono Q columns; a calmodulin-affinity column was used to remove residual PDE I activity.
PDE activity was assayed by the boronate column method as previously described (Reeves et al., 1987). The enzymes were assayed by incubation at 37° C. for 4-30 min in 50 mM Tris, 5 mM MgCl2, pH 7.5 with ^3 H-labelled cyclic nucleotide (4×105 disintegrations min^-1) and ^14 C-labelled nucleotide 5'-monophosphate (3×10^3 disintegrations min^-1). The assay was stopped by boiling, and the ^3 H-labelled 5'-monophosphate product separated from substrate on boronate columns. The reaction mixture was diluted with 0.5 mL 100 mM HEPES [N-(2-hydroxyethyl)piperazine-N ^1 -2-ethanesulfonic acid], 100 mM NaCl, pH 8.5, and applied to the column. The column was extensively washed with the same buffer, and the 5'-nucleotide eluted with 6mL of 0.25M acetic acid.

Assay [2] deals with PDE (V) (Sus scrofa, UniProt A0A287B475). Description: Inhibition of phosphodiesterase PDE V (cGMP-specific), boronate column method. It counts as biochemical, porcine. To be noted: 37° C., pH 7.5; read-out: Inhibition of PDE expressed as IC50, PDE (V). The method, then: The latter were separated by a cGMP-affinity column. The resolved PDEs were separately rechromatographed on a 1 ml Mono Q column. cGMP-selective PDE (PDE V) was obtained from porcine lung using chromatography on DEAE-cellulose and Mono Q columns; a calmodulin-affinity column was used to remove residual PDE I activity. PDEV This isoenzyme had high affinity for cGMP. […] PDE activity was assayed by the boronate column method as previously described (Reeves et al., 1987). The enzymes were assayed by incubation at 37° C. for 4-30 min in 50 mM Tris, 5 mM MgCl2, pH 7.5 with ^3 H-labelled cyclic nucleotide (4×105 disintegrations min^-1) and ^14 C-labelled nucleotide 5'-monophosphate (3×10^3 disintegrations min^-1). The assay was stopped by boiling, and the ^3 H-labelled 5'-monophosphate product separated from substrate on boronate columns. […] The column was extensively washed with the same buffer, and the 5'-nucleotide eluted with 6mL of 0.25M acetic acid.

Assay [3] deals with blood eosinophilia. Put plainly: Sephadex induced blood eosinophilia in the rat. It counts as in vivo, Male Charles River Sprague Dawley rats. To be noted: 30 min before each Sephadex injection, n = 6. The method, then:
Induction of blood eosinonhilia and the effects of drugs.
Male Charles River Sprague Dawley rats weighing between 270 to 400 g were used.
The method used was a modification of that described by Laycock et al (Int. Arch. Appl. Immunol, (1986). 81, 363).
Sephadex G200, particle size 40 to 120 micron, was suspended in isotonic saline at 0.5 mg/ml, and stored for 48 h at 4° C. 1 ml of the suspension was given intravenously to rats on days 0, 2 and 5. The test compound was given before the Sephadex on each occasion, with a contact time expected to give maximum activity at the time of the Sephadex administration. Blood was taken from the tail vein of the rats on day 7 for the determination of total and differential leucocyte counts.
A control group of at least 6 animals was included each time a compound was evaluated. The control group received Sephadex and the vehicle without test compound. The results in the drug treated animals were compared with the control group.
[…] of blood, taken from the tail vein of the rats, were added to 10 ml of Isoton II and, within 30rain, Zapoglobin (3 drops) was added, to lyse the erythrocytes. Five minutes later the total cell count was determined using a Coulter Counter Model DN. […] A minimum of 400 cells were counted on each slide.
Probability values were calculated using the Student's t test. […]

Assay [4] relates to cGMP-stimulated PDE (PDE II). Description: Kinetic properties of phosphodiesterase isoenzyme II. It counts as biochemical, guinea-pig. To be noted: substrate of PDE II; enzyme displayed positive cooperativity. The method, then: as §1, with “Following” for “The Ca^2+ /calmodulin-stimulated PDE (PDE I, see Table 1 and Beavo and Reifsynder (1990) for nomenclature) was prepared from bovine cardiac ventricle. Following”
(§2) The assay was stopped by boiling, and the ^3 H-labelled 5'-monophosphate product separated from substrate on boronate columns. The reaction mixture was diluted with 0.5 mL 100 mM HEPES [N-(2-hydroxyethyl)piperazine-N ^1 -2-ethanesulfonic acid], 100 mM NaCl, pH 8.5, and applied to the column. The column was extensively washed with the same buffer, and the 5'-nucleotide eluted with 6mL of 0.25M acetic acid.

The subject of assay [5] is Ca^2+ /calmodulin-stimulated PDE (PDE I). Put plainly: Kinetic properties of phosphodiesterase isoenzyme I. The class given is biochemical, bovine. To be noted: substrate of PDE I. The method, then: as §1, with “Following” for “The Ca^2+ /calmodulin-stimulated PDE (PDE I, see Table 1 and Beavo and Reifsynder (1990) for nomenclature) was prepared from bovine cardiac ventricle. Following”
as §2

The subject of assay [6] is cGMP-specific PDE (PDE V). Put plainly: Kinetic properties of phosphodiesterase isoenzyme V. To be noted: substrate of PDE V. The class given is biochemical, porcine. The method, then: as §1, with “Following” for “The Ca^2+ /calmodulin-stimulated PDE (PDE I, see Table 1 and Beavo and Reifsynder (1990) for nomenclature) was prepared from bovine cardiac ventricle. Following”
PDEV This isoenzyme had high affinity for cGMP.
as §2

In assay [7] the test system is cAMP-specific PDE (PDE IV). Put plainly: Kinetic properties of phosphodiesterase isoenzyme IV. It counts as biochemical, guinea-pig. To be noted: substrate of PDE IV, class symbol. On the procedure:
as §1, with “Following” for “The Ca^2+ /calmodulin-stimulated PDE (PDE I, see Table 1 and Beavo and Reifsynder (1990) for nomenclature) was prepared from bovine cardiac ventricle. Following”
as §2

Assay [8] has as its system cGMP-inhibited PDE (PDE III). Description: Kinetic properties of phosphodiesterase isoenzyme III. It counts as biochemical, guinea-pig. To be noted: substrate of PDE III. The method, then: as §1, with “Following” for “The Ca^2+ /calmodulin-stimulated PDE (PDE I, see Table 1 and Beavo and Reifsynder (1990) for nomenclature) was prepared from bovine cardiac ventricle. Following”
as §2

On to `Nc1nc2c(c(=O)n(CC3CC3)c(=O)n2CC2CC2)n1S(=O)(=O)c1ccccc1` [Example 1, 8-Amino-7-benzenesulphonyl-1,3-di(cyclopropylmethyl)xanthine], for which the IC50 was 3 µM in assay [1] and 4 µM in assay [2].
As to `COc1ccc(S(=O)(=O)n2c(N)nc3c2c(=O)n(CC2CC2)c(=O)n3CC2CC2)cc1` [Example 2, 8-Amino-1,3-di(cyclopropylmethyl)-7-(4-methoxybenzenesulphonyl)xanthine], the IC50 in assay [1] came to 3 µM; in assay [2], 0.4 µM. The “Eosinophilia, % of Control Mean ± SEM” value was 62 ± 7 % of Control in assay [3] (20 mg/kg orally, *p < 0.05) and 51 ± 7 % of Control in assay [3] (50 mg/kg orally, **p < 0.01).
In the case of `COc1ccc(S(=O)(=O)n2c(N)nc3c2c(=O)n(CC2CC2)c(=O)n3CC2CC2)cc1OC` [Example 3, 8-Amino-1,3-di-(cyclopropylmethyl)-7-(3,4-dimethoxy-benzenesulphonyl)xanthine], the results for the IC50 in assay [1] and in assay [2] were 4 µM and 0.2 µM, respectively.
Regarding `COc1ccc(S(=O)(=O)n2c(Cl)nc3c2c(=O)n(CC2CC2)c(=O)n3CC2CC2)cc1` [Example 7, 8-Chloro-1,3-di(cyclopropylmethyl)-7-(4-methoxybenzenesulphonyl)xanthine], the results for the IC50 in assay [1] and in assay [2] were 11 µM and over 100 µM, respectively.
On to `Nc1nc2c(c(=O)n(CC3CC3)c(=O)n2CC2CC2)n1S(=O)(=O)c1ccc(Cl)cc1` [Example 9, 8-Amino-1,3-di(cylcopropylmethyl)-7-(4-chlorobenzenesulphonyl)xanthine], for which, in assay [1], the IC50 was found to be 4 µM.
Take `COc1ccc(Cn2c(N(S(=O)(=O)c3ccccc3)S(=O)(=O)c3ccccc3)nc3c2c(=O)n(CC2CC2)c(=O)n3CC2CC2)cc1` [Example 23, 1,3-Di(cyclopropylmethyl)-8-di(benzenesulphonyl)amino-7-(4-methoxy-benzyl)xanthine]: the IC50 in assay [1] was over 100 µM; in assay [2], 7 µM.
For `COc1ccc(S(=O)(=O)Nc2nc3c(c(=O)n(CC4CC4)c(=O)n3CC3CC3)n2Cc2cc(OC)c(OC)c(OC)c2)cc1` [Example 25, 1,3-Di(cyclopropylmethyl)-8-(4-methoxybenzenesulphonamido)-7-(3,4,5-trimethoxybenzyl)xanthine], the IC50 in assay [1] is over 100 µM.
Turning to `Nc1nc2c(ncn2[C@@H]2O[C@@H]3COP(=O)(O)O[C@H]3[C@H]2O)c(=O)[nH]1` [cGMP], the Km is 14 µM in assay [4]; 5 µM in assay [5]; 1 µM in assay [6]; over 100 µM in assay [7]; 0.1 µM in assay [8].

As a reminder, the IC50 is the concentration needed to halve the response being measured. In general, Km refers to the concentration of substrate that gives half-maximal velocity.

The values above are taken from patent publication US5409934A, “Xanthine derivatives” (priority 1990, dated 1995).
